# Measured values: patent publication US20110212199A1, “AGENT FOR TREATING EYE DISEASES” (priority 2003, published 2011)
# Entries after “also recorded” stand apart in the source; their conditions may differ.
# How the values were obtained:
# presbyopia [1] = assay: Example 16: presbyopia, corrected near visual acuity; type: in vivo, human; details: after 14 days; before 0.4
# From the text: To […] with presbyopia having corrected near visual acuity (near vision after correction) before treatment of […]
# normal tension glaucoma = assay: Example 9: normal tension glaucoma patient; type: in vivo, human
# Protocol: The patient is person diagnosed as normal tension glaucoma. Water-soluble 17β-estradiol inclusion product (Cyclodextrin-encapsulated 17β-estradiol available from SIGMA CO. […] To the above-mentioned patient, 1 drop (25 μl) of eye drops was dropped per one eye once every morning for 10 days.
# [2] = test system: epidemic keratoconjunctivitis; assay: Example 29: epidemic keratoconjunctivitis; type: in vivo, human
# [3] = test system: corneal endothelial cells; assay: Example 27: regeneration and protection of corneal endothelial cells; type: in vivo, human; details: 10 days
# From the text: As a measurement device, NONCON ROBO (KONAN INC) specular microscope was used.
# Mooren's corneal ulcer = assay: Example 18: corneal ulcer; type: in vivo, human; details: person, right eye; 1 mg/l, 1 drop (50 μl) twice a day
# From the text: Thus, it can be considered that treatment of autoimmune disease is possible.
# schizophrenia = assay: Example 22: central nerve diseases (schizophrenia patient); type: in vivo, human
# chorioretinal hemorrhage = assay: Example 17: chorioretinal hemorrhage; type: in vivo, human; details: person, right eye; 1 mg/l, 1 drop (50 μl) once every morning, with Adona 30 mg a day orally
# [4] = test system: pigmentary retinal degeneration; assay: Example 13: pigmentary retinal degeneration; type: in vivo, human; details: after 77 days
# Protocol: The patient is person, and has artificial intraocular lens inserted eyes already carried out a cataract operation. Due to pigmentary retinal degeneration, narrowing of visual field occurs. […] After 77 days from initiation of administration, it could be confirmed that both of visual acuity and visual field were improved. Also, when the visual fields were measured by OCTOPUS 1-2-3 static perimeter before administration and after 77 days from the initiation of the administration, and they were compared, it can be confirmed to be improved. (see FIGS. 27 to 30)
# [5] = test system: granular corneal degeneration; assay: Example 19: corneal degeneration; type: in vivo, human
# [6] = test system: high intraocular pressure open-angle glaucoma; assay: Example 10: high intraocular pressure open-angle glaucoma patient; type: in vivo, human; parameters: intraocular pressure, right: dose or concentration left out as unconfirmed
# Protocol: The patient is person diagnosed as high intraocular pressure open-angle glaucoma. Water-soluble 17β-estradiol inclusion product (Cyclodextrin-encapsulated 17β-estradiol available from SIGMA CO. […] To the above-mentioned patient, 1 drop (25 μl) of eye drops was dropped once every morning for a week.
# cataract = assay: Example 11: cataract patient; type: in vivo, human; details: 1 mg/l, 1 drop (50 μl) once per day
# macular hole = assay: Example 25: macular hole; type: in vivo, human
# diabetic retinopathy = assay: Example 24: diabetic retinopathy; type: in vivo, human
# chorioretinal atrophy = assay: Example 23: chorioretinal atrophy; type: in vivo, human; details: person, 1 mg/l
# [7] = test system: cataract in ultraviolet ray irradiated eyes of mouse; assay: Treatment of cataract (animal experiment), UV-A+UV-B irradiation; type: in vivo
# Protocol: Control group (Control): To eyes of mouse (4 eyes) were irradiated ultraviolet rays UV-A+UV-B (each 0.36J: 100 μW×1 hour) from 10 PM to 11 PM at the first day, the third day, the fifth day each once, and three times in total. Provided that, before 1 minute and after 1 minute of each ultraviolet ray irradiation, 1 drop (50 μl) of PBS (phosphate buffered physiological saline) was administered, and 1 drop of PBS was administered each once at the second day, the fourth day, the sixth day, the seventh day, the eighth day, the ninth day and the tenth day.
# Pre-administered group of ultraviolet ray irradiation (Pre 0.1 g/l and Pre 0.01 g/l): To eyes of mouse were irradiated ultraviolet rays UV-A+UV-B (each 0.36J: 100 pW×1 hour) from 10 PM to 11 PM at the first day, the third day, the fifth day each once, and three times in total.
# Post-administered group of ultraviolet ray irradiation (Post 0.1 g/l and Post 0.01 g/l): To eyes of mouse were irradiated ultraviolet rays UV-A+UV-B (each 0.36J: 100 μW×1 hour) from 10 PM to 11 PM at the first day, the third day and the fifth day each once, and three times in total.
# iridocyclitis = assay: Example 20: iridocyclitis; type: in vivo, human; details: person, right eye; 1 mg/l, 1 drop (50 μl) every morning; after 1 week
# photopsia = assay: Example 28: photopsia; type: in vivo, human; details: person; 10 mg/l, 1 drop (50 μl) once a day for 3 weeks
# [8] = test system: central chorioretinopathy (choriotetinitis); assay: Example 31: central chorioretinopathy; type: in vivo, human
# myopia = assay: Example 15: myopia; type: in vivo, human
# chalazion = assay: Example 14: chalazion; type: in vivo, human; details: child, right eye; 1 mg/l, 1 drop (50 μl) once every morning
# asthenopia = assay: Example 30: asthenopia; type: in vivo, human; details: person; 10 mg/l, once (50 μl) a day; 3 weeks
# presbyopia [9] = assay: Example 12: presbyopia, near point; type: in vivo, human; details: for near point, left eye: before 29 cm
# Protocol: The patient is person of presbyopia having slight myopia of −2.5 dioptre and −1.0D of astigmatism. When a near point of the left eye of the patient was measured without lens correction, it was 29 cm. Water-soluble 17β-estradiol inclusion product (Cyclodextrin-encapsulated 17β-estradiol available from SIGMA CO. […] To the patient was dropped 1 drop (25 μl) of eye drops at 9 AM per each eye. […] Incidentally, the far point was 41±2 cm in average.
# dynamic visual acuity = assay: Example 26: dynamic visual acuity; type: in vivo, human; details: person, left eye; 10 μg/ml, 50 μl one time; 30 minutes to 1 hour and 15 minutes after dropping
smiles,measurement,setting,value
C[C@]12CC[C@@H]3c4ccc(O)cc4CC[C@H]3[C@@H]1CC[C@@H]2O [17β-estradiol],near vision after correction Vs (30 cm),presbyopia [1],0.7
same,visual field by Octopus 1-2-3,normal tension glaucoma; after 10 days,both eyes extremely well improved
same,"intraocular pressure, left","normal tension glaucoma; after 10 days, before 12",9 mmHg
same,"intraocular pressure, right","normal tension glaucoma; person, 100 mg/l, 1 drop (25 μl) every morning for 10 days, before 14",12 mmHg
same,eye discharge,"[2]; 1 mg/l once a day, fourth day",eye discharge was increased
same,keratitis superficialis diffusa,"[2]; person, 1 mg/l, 1 drop (50 μl) once a day",cured at the fourth day
same,number of left eye endothelial cells,[3]; before 2906,3496 per mm^2
same,number of right eye endothelial cells,"[3]; person, 1 mg/l, 1 drop (50 μl) once a day, before 2801",3410 cells/mm²
same,time in which the disease was cured,Mooren's corneal ulcer,3 weeks
same,visual acuity Vs,"schizophrenia; after 14 days, initiation 0.09",Vs = 0.1 × IOL (0.1)
same,Vs vision after correction,"schizophrenia; after 14 days, initiation 0.1",Vs = 0.1 × IOL (0.1)
same,Vs vision after correction,schizophrenia; after 42 days,0.1
same,visual acuity Vs,schizophrenia; after 42 days,0.09
same,Vs vision after correction,schizophrenia; after 77 days,0.15
same,visual acuity Vs,schizophrenia; after 77 days,0.1
same,Vs vision after correction,schizophrenia; after 115 days,0.2
same,visual acuity Vs,schizophrenia; after 115 days,0.09
same,mental state,"schizophrenia; patient's statement after 42 days, overall",improvement in mental state; also recorded: be encouraged
same,time until hemorrhage disappeared,chorioretinal hemorrhage,45 days
same,visual fields by OCTOPUS 1-2-3 static perimeter,[4],improved
same,Vs vision after correction,[4]; before 0.8,1.0
same,visual acuity Vs,[4]; before 0.8,0.5
same,Vs vision after correction,"[5]; (1) 2 weeks, before n·c",0.8
same,visual acuity Vs,"[5]; (1) person, left eye, 1 mg/l, 1 drop twice a day, 2 weeks, before 0.6 (n·c)",0.4
same,"intraocular pressure, left","[6]; after a week, before 24",18 mmHg
same,"visual field, left eye","[6]; after a week, progressed defect before",slightly improved
same,"visual field, right eye","[6]; after a week, slight defect before",substantially normally recovered
same,"intraocular pressure, left",[6]; at 3 weeks,19 mmHg
same,"intraocular pressure, right",[6]; at 3 weeks,20 mmHg
same,"intraocular pressure, right","[6]; person, inclusion product […], 1 drop (25 μl) every morning, after a week, before 23",16 mmHg
same,"opacity of cataract, slit lamp microscope",cataract,opacity of cataract had been reduced
same,visual acuity,cataract,improvement in visual acuity was admitted
same,"visual acuity, left eye","macular hole; after 1 month, before 0.7",1.2
same,macular hole outcome,"macular hole; person, left eye, 10 mg/l, 1 drop (50 μl) twice a day for 1 month",macular hole was cured
same,retinal bleeding,diabetic retinopathy; after about 100 days,retinal bleeding was disappeared
same,"retinal bleeding, photograph of eyegrounds","diabetic retinopathy; person, 1 mg/l, 1 drop (50 μl) once everyday, after about 2 months",slightly improved
same,"vision after correction, left eye","chorioretinal atrophy; 1 drop (50 μl) once a day for 1 month, before 0.1",0.3
same,"vision after correction, right eye","chorioretinal atrophy; 50 μl once a day for 1 month, before 0.08 (n·c)",0.2
same,"appearance of cataract, pre-administered vs post-administered group",[7]; administered 1 minute before vs after irradiation,less appearance of cataract
same,occurrence of cataract at the tenth day,"[7]; eye drops 0.1 g/l or 0.01 g/l, 1 drop (50 μl), pre- and post-administered groups, vs PBS control",occurrence of cataract had scarcely observed
same,iridocyclitis outcome,iridocyclitis,inflammatory cells in anterior chamber disappeared
same,photopsia symptom,photopsia,the symptom was lightened
same,visual acuity Vs,"[8]; after treatment, before 0.1",0.3
same,Vs corrected vision,"[8]; after treatment, before 0.8",1.5
same,macular edema,"[8]; person, left eye, 10 mg/l, 1 drop (50 μl) twice a day, a week",macular edema was lightened
same,visual acuity Vs,"myopia; (1) after 9 days, before 0.6",1.0
same,visual acuity Vs,"myopia; (2) after 45 days, before 0.3",0.5
same,time until tumor disappeared,chalazion,12 days
same,asthenopia,asthenopia,asthenopia was lightened
same,"near point, left eye",presbyopia [9]; after 3 hours,24 cm
same,"far point, average",presbyopia [9]; in vivo,41±2 cm
same,maximum improvement in refraction (near point),presbyopia [9]; in vivo,5 cm
same,"near point, left eye","presbyopia [9]; person, 100 mg/l, 1 drop (25 μl), after 1 hour",27 cm
same,dynamic visual acuity (KV-100),dynamic visual acuity,abruptly improved
